{"source": "patent US20220152144A1", "about": "“FOOD ADDITIVE INCLUDING MANNAN OLIGOSACCHARIDES TO ENHANCE ANIMAL PERFORMANCE AND METHOD OF USING THE SAME” (Vitech Bio-Chem Corporation, priority 2020, published 2022)", "key": {"[1]": {"assay": "Growth performance of broiler chicks fed supplemented diets (Example 1)", "type": "in vivo, broiler chicks (Cobb500)", "conditions": "dose 45 ppm", "description": "Materials and Methods. Broiler chicks: A total of 960 1-day old broiler chicks (Name of breed: Cobb500™) (8 trt×6 rep×20 birds/pen) were randomly allocated to 8 treatment groups. Treatment groups: Treatment 1 was a corn/soybean meal diet (PC: 45 ppm avilamycin); Treatment 2 was a PC+50 g/T Fish hydrolysate+MOS (80:20 ratio); Treatment 3 was a PC+100 g/T Fish hydrolysate+MOS (80:20); and treatment 4 was PC+200 g/T Fish hydrolysate+MOS (80:20).\n(§1) The trial was conducted for 42 days. Body weight gain, feed intake, and FCR was measured at 14, 28, and 42 days. Cecal levels of E. coli, Salmonella, and lactobacillus were evaluated at 21 days.\nMeasurements: Individual broiler weights and feed intake was collected in order to calculate body weight and body weight gain, feed intake, and gain-to-feed ratio by phase.\nOne-way ANOVA and Duncan's multiple range test was used to separate the means. There is no difference found between treatments. The overall mortality during the 42 days period is 3.65% and it is non-treatment specific."}, "E. coli": {"tested_on": "E. coli", "assay": "Bacterial counts in cecal samples of broiler chicks: E. coli", "type": "in vivo", "conditions": "21 days, dose 45 ppm", "description": "as §1"}, "Lactobacilli": {"tested_on": "Lactobacilli", "assay": "Bacterial counts in cecal samples of broiler chicks: Lactobacilli", "type": "in vivo", "conditions": "21 days, dose 45 ppm", "description": "as §1"}}}
{"smiles": "COC[C@H]1O[C@@H](OC2OC[C@@H]3O[C@]4(O[C@H]3[C@H]2OC(=O)C(C)C)O[C@H](C)[C@@](O)(C(C)=O)[C@@H]2OCO[C@H]24)[C@@H](OC)[C@@H](O)[C@@H]1O[C@@H]1O[C@H](C)[C@H](OC)[C@H](O[C@H]2C[C@@]3(C)OC4(C[C@@H](O)[C@H](O[C@H]5C[C@@H](O)[C@H](OC(=O)c6c(C)c(Cl)c(O)c(Cl)c6OC)[C@@H](C)O5)[C@@H](C)O4)O[C@@H]3[C@@H](C)O2)[C@H]1O", "note": "(stereo partly shown) [Avilamycin, avilamycin]", "values": [{"measurement": "body weight (BW)", "setting": "[1]; Day 0-14", "result": 442, "unit": "g"}, {"measurement": "body weight gain (BWG)", "setting": "[1]; Day 0-14", "result": 402, "unit": "g"}, {"measurement": "feed intake (FI)", "setting": "[1]; Day 0-14", "result": 583, "unit": "g"}, {"measurement": "food conversion ratio (FCR)", "setting": "[1]; Day 0-14", "result": 1.453}, {"measurement": "body weight (BW)", "setting": "[1]; Day 0-28", "result": "1,550 g"}, {"measurement": "body weight gain (BWG)", "setting": "[1]; Day 0-28", "result": "1,510 g"}, {"measurement": "feed intake (FI)", "setting": "[1]; Day 0-28", "result": "2,212 g"}, {"measurement": "food conversion ratio (FCR)", "setting": "[1]; Day 0-28", "result": 1.472}, {"measurement": "body weight (BW)", "setting": "[1]; Day 14-28", "result": "1,550 g"}, {"measurement": "body weight gain (BWG)", "setting": "[1]; Day 14-28", "result": "1,108 g"}, {"measurement": "feed intake (FI)", "setting": "[1]; Day 14-28", "result": "1,628 g"}, {"measurement": "food conversion ratio (FCR)", "setting": "[1]; Day 14-28", "result": 1.542}, {"measurement": "body weight (BW)", "setting": "[1]; d 28-42", "result": "2,784 g"}, {"measurement": "body weight gain (BWG)", "setting": "[1]; d 28-42", "result": "1,235 g"}, {"measurement": "feed intake (FI)", "setting": "[1]; d 28-42", "result": "2,601 g"}, {"measurement": "food conversion ratio (FCR)", "setting": "[1]; d 28-42", "result": 2.123}, {"measurement": "body weight (BW)", "setting": "[1]; overall 0-42 days", "result": "2,784 g"}, {"measurement": "body weight gain (BWG)", "setting": "[1]; overall 0-42 days", "result": "2,745 g"}, {"measurement": "feed intake (FI)", "setting": "[1]; overall 0-42 days", "result": "4,813 g"}, {"measurement": "food conversion ratio (FCR)", "setting": "[1]; overall 0-42 days", "result": 1.753}, {"measurement": "E. coli Counts", "setting": "E. coli", "result": 7.29, "unit": "a Log10 CFU/g"}, {"measurement": "Lactobacilli Counts", "setting": "Lactobacilli", "result": 7.21, "unit": "Log10 CFU/g"}]}
